Molecules are shown by their SMILES.

The results in this text go back to patent US7745547B1, “Multi-arm cyclic or cubic siloxane-based formulations for drug delivery” (Becton, Dickinson and Company, priority 2005, dated 2010).

Data set [1] in a line: Drug release time study of encapsulated cisplatin by UV-vis absorbance at 300 nm. The data set is classed as physicochemical. The procedure:
A drug release time study was performed on encapsulated cisplatin (i.e., cisplatin/delivery vehicle) to assess the time for complete release of the encapsulated drug from the delivery vehicle. UV-vis spectroscopy was used to monitor the change in absorbance in peaks associated with cisplatin over time.
5 mg of cisplatin was placed in a glass vial and 10 mL of water (10 mL) added. The vial was sonicated in a Bransonic Ultrasonic Cleaner (115 v, 50/60 HZ, […] transducer) for about 5 min to completely dissolve the cisplatin. 50 mg of the delivery vehicle (PEG400)4D4^M was placed in a separate vial and 10 mL of water added. Upon shaking, the polymer dissolved immediately. The cisplatin solution was added to the delivery vehicle solution drop-wise with sonication. After the mixing was complete, a UV-vis spectrum was recorded. The solution was further sonicated for 1 hr and monitored with UV-vis spectroscopy at intervals of 10 min to examine the encapsulation process. After 1 hr, sonication was stopped and incubation was allowed to continue at room temperature without shaking. UV-vis spectra were recorded at 20 min intervals for one hr, followed by 3 hours intervals for the next 24 hrs. After 24 hrs, UV-vis spectra were recorded at random intervals for several days to monitor the release time of the cisplatin. For reference, another solution of pure cisplatin was prepared at a similar concentration, and UV-vis spectra were recorded for the un-encapsulated cisplatin solution at similar intervals as with the encapsulated cisplatin solution. In about 200 hours ([…]), the absorbance of the encapsulated cisplatin solution dropped to the same level as that of the un-encapsulated cisplatin solution. This was viewed as the complete release of encapsulated cisplatin from the vehicle. All data provided in Table 4 were collected at a wavelength of 300 nm.

The nature of data set [2]: Microscopy of dried drops: crystal formation as evidence of cisplatin encapsulation. The data set is classed as physicochemical. The following applies: one drop on glass slide, room temperature, open air. An excerpt:
The cisplatin/delivery vehicle samples were also examined under a microscope to further investigate the encapsulation. Specifically, a comparison was made between encapsulated and un-encapsulated cisplatin.
The cisplatin/delivery vehicle samples were also examined under a microscope to further investigate the encapsulation. A comparison was made between encapsulated and un-encapsulated cisplatin.

The conditions of data set [3]: one drop of ethanol solution dried on glass slide.
Description: To verify the encapsulation, samples were examined under the microscope and a comparison was made between the paclitaxel solution alone and the paclitaxel/delivery vehicle solution. In particular, one drop of each solution was placed on a separate glass slide and the ethanol was allowed to evaporate at room temperature in the open-air. After complete evaporation of the ethanol, dry sample spots were covered and sealed by cover slides and both slides were examined under microscope.
For microscopic analysis, one drop of each solution (i.e., paclitaxel alone paclitaxel/delivery vehicle solutions) and was placed on a separate glass slide. The ethanol was allowed to evaporate at room temperature in the open-air. After complete evaporation of the ethanol, dry sample spots were covered and sealed by cover slides and both slides were examined under the microscope.

As to `N.N.[Cl][Pt][Cl]` [un-encapsulated cisplatin, cisplatin], the Absorbance in data set [1] (time 0.00 hrs) is 0.18; in data set [1] (time 0.17 hrs), 0.17; in data set [1] (time 0.33 hrs), 0.16; in data set [1] (time 0.50 hrs) it was 0.16; in data set [1] (time 0.67 hrs), 0.16; in data set [1] (time 0.83 hrs), 0.16. The Absorbance was 0.16 in data set [1] (time 1.00 hrs); 0.16 in data set [1] (time 1.33 hrs); 0.16 in data set [1] (time 1.67 hrs); 0.16 in data set [1] (time 2.00 hrs); 0.16 in data set [1] (time 3.00 hrs); 0.15 in data set [1] (time 21.00 hrs). The Absorbance in data set [1] (time 24.00 hrs), in data set [1] (time 42.00 hrs), in data set [1] (time 45.00 hrs), in data set [1] (time 72.00 hrs), in data set [1] (time 88.00 hrs) and in data set [1] (time 120.00 hrs) was 0.15 throughout. The Absorbance in data set [1] (time 174.00 hrs) and in data set [1] (time […]) was 0.15 in each case. Further, in data set [2], the “crystal formation as water evaporates (microscope)” value is listed as “formed crystals”.

In the case of `CC(=O)O[C@H]1C(=O)[C@@]2(C)[C@H]([C@H](OC(=O)c3ccccc3)[C@]3(O)C[C@H](OC(=O)[C@H](O)[C@@H](NC(=O)c4ccccc4)c4ccccc4)C(C)=C1C3(C)C)[C@]1(OC(C)=O)CO[C@@H]1C[C@@H]2O` [un-encapsulated paclitaxel, paclitaxel], the “fluorescence when exposed to fluorescent light (microscope)” value in data set [3] is on record as “shows fluorescence activity”.
